Molecules are shown by their SMILES.

The results in this text go back to patent publication US7662802B2, “Halide-free glucosamine-acidic drug complexes” (Gluconova, LLC, priority 2004, dated 2010).

The data set in a line: stability of halide-free glucosamine at ambient temperature and/or the atmosphere. Format: physicochemical.

For `N[C@H]1C(O)O[C@H](CO)[C@@H](O)[C@@H]1O` (some centres unmarked) [halide-free glucosamine, glucosamine], the hygroscopicity entry is “quite hygroscopic”. Besides, the stability on storage entry (subjected to ambient temperature and/or to the atmosphere) is listed as “will decompose over a period of time”.
